Laboratory results as given in article PMC7613620, “Reaction hijacking of tyrosine tRNA synthetase as a whole-of-life-cycle antimalarial strategy” (Science (New York, N.Y.), 2022).

Key:
HepG2 = HepG2 Cell Titer-GLO luminescent cell viability assay; format: cell-based; conditions: Homo sapiens, HepG2, 72 h, read-out: HepG2 (luminescence) IC50(72h)
Experimental: 561 Mammalian cell culture experiments
562 The HepG2 (Human hepatocyte carcinoma) cell line was procured from ATCC (American Type
563 Culture Collection, Manassas, USA; HB-8065) and viability assessed using Cell Titer-GLO luminescent
564 cell viability assay reagents (Promega, catalogue number: G7570) (47, 48). For the assay, 2000 cells/well
565 were plated in 384-well plates 24 h prior to the experiment and incubated at 37°C in a CO2 incubator. The
566 medium was removed and cells were treated with fresh medium containing either vehicle (0.5% DMSO)
567 or serially diluted test compounds or doxorubicin (1.3 nM to 25 µM) in a final volume of 50 µl/well and
568 further incubated for 72 h at 37°C in a CO2 incubator.
569 were treated with 5 µl of 1% Triton X-100 (final assay conc. 0.1%). Following incubation, 25 µl of medium
570 was discarded and 25 µl of Cell Titer-GLO reagent was added to each well and the plate was kept on a plate
571 shaker for 15 min at 25°C with shaking at 300 rpm. Luminescence signals were measured in a Spectramax
572 M5 reader (Molecular Devices). […]
(§1) 585 37°C humidified incubator as adherent semi-confluent monolayers in complete Dulbecco’s Modified Eagle
(§2) 586 Media (c-DMEM). DMEM (Gibco™, Thermo Fisher Scientific, Australia) was supplemented with 10%

[1] = tested on: P. falciparum male gametes; assay: Dual gamete formation assay (male); format: cell-based; conditions: Plasmodium falciparum
Experimental: 604 Activity against transmissible stages of P. falciparum
605 Activity against male gametes was assessed using the dual gamete formation assay (PfDGFA)(32).
606 Compounds were incubated with mature stage V gametocytes ([…], kind gift from Professor Chris Janse
607 at Leiden University Medical Center (LUMC), the Netherlands) for 48 hours in 384 well plates before
608 gamete formation was triggered by a drop in temperature and addition of xanthurenic acid. Male gamete
609 exflagellation was recorded and quantified by automated microscopy. The ability of female gametes to
611 Multiple data sets using different gametocyte cultures were collected on each of two separate days.
613 Activity against exoerythrocytic stages
614 Primary human hepatocytes (H1500.H15B+ Lot No. HC10-10 Cryopreserved human hepatocytes)
615 were cultured for 2 days and then overlaid with P. falciparum NF54 sporozoites and compounds.
616 Supernatant was refreshed daily with fresh compounds.

P. falciparum Dd2 = assay: 72-h sensitivity of wildtype Dd2 parent line; format: cell-based; conditions: Plasmodium falciparum, 72-h exposure
Experimental: (§3) 700 the drug plate. Lowest drug treatment and a lethal dose of chloroquine (200 nM) served as reference
(§4) 701 controls. Growth inhibition was analysed after 72 h using the Renilla-Glo(R) Luciferase Assay System (ref
(§5) 702 no E2750 Promega) and the GloMax® Discover Multimode Microplate Reader (Promega), and IC50 values
(§6) 703 were obtained from corrected dose-response curves using GraphPad Prism (version 8; GraphPad Software). […]
729 Cam 3.II_Rev (25) trophozoite-infected RBCs (25-30 h p.i.) were incubated with inhibitor for 3 h at 10%
730 hematocrit and 5% parasitemia. The RBC pellet was washed 3 x in PBS + cOmplete. Cells were centrifuged
731 at 380 x g for 5 min and the pelleted cells lysed by resuspension in PBS + 0.05% saponin for 5 min on ice.

[2] = tested on: aptamer-regulatable control line; assay: Growth inhibition of aptamer-regulatable control line (luciferase, 72 h); format: cell-based, Plasmodium falciparum
Experimental: 677 parasites using CRISPR-Cas9 and homology-driven repair (55, 56). A line harbourbing an aptamer-
678 regulatable fluorescent protein (eYFP) integrated in the cg6 locus is used as the control (55). […]
696 Stock solutions of ML901, DHA or borrelidin (Cayman Chemicals) were dispensed into 96-well U-bottom
697 BD Falcon™ plates and serially diluted in complete medium to yield final concentrations ranging from 20-
698 0.08 nM. Synchronous ring-stage YRScyt conditional knockdown line and the aptamer-regulatable control
699 line in varying aTc concentrations (high = 50 or 500 nM, low = 1 nM, and no aTc) were distributed into
as §3, §4, §5, §6
706 CRISPR/Cas9 was used to generate parasites encoding the S234C mutation in exon 2 of PfYRS, as shown
707 in Suppl Figure 6. Two guide RNAs (gRNA1: […] and gRNA2:
708 […]) were selected using Benchling (benchling.com), and cloned into the
709 pDC2-coCas9-gRNA plasmid essentially as described previously (58). A donor template of 645 bp, […]

H460 = H460 cell viability (ATP content); format: cell-based; conditions: Homo sapiens, NCI-H460, 72 h, read-out: H460 IC50(72h)
Experimental: 574 H1650 is a human lung cancer derived ATG7-null cell line (49) that can be used to assess effects on targets
576 adenocarcinoma; bronchoalveolar carcinoma). Other cells lines used are: H460 (NCI-H460; human lung;
577 carcinoma; large cell lung cancer; ATCC: HTB-177); and HCT116 (human colon; colorectal carcinoma;
578 ATCC: CCL-247; Lot : 5056139). Each of the cell lines was received from the American Type Culture
579 Collection (ATCC) and passaged twice before freezing. Cells were cultured in the presence or absence of
580 inhibitors and cell viability was assessed by comparing the ATP content in compound-treated wells with
581 that in DMSO-treated wells as previously described (11). […]
as §1, §2

## Nc1ncnc2c1c(OC(F)F)nn2[C@@H]1O[C@H](COS(N)(=O)=O)[C@@H](O)[C@H]1O [ML901]
HepG2
  IC50: 1630 nM
[1]; 48 h incubation with stage V gametocytes
  IC50: 130 ± 10 nM
[1]; at 25 µM
  inhibition at 25 µM: 99%
P. falciparum Dd2
  IC50: 2.2 ± 0.3 nM
[2]
  Fold change in IC50 (high aTc/ no aTc), control line: no change
[2]; Plasmodium falciparum, read-out: IC50 against control line
  IC50: 2.4 ± 0.2 nM
H460
  IC50: 4650 nM
